Reference: US6740637B1, “Chlorophyll and bacteriochlorophyll derivatives, their preparation and pharmaceutical compositions comprising them” (priority 1998, dated 2004)

Key:
[1] = system: M2R cells; assay type: cell-based, mouse
Experimental: Alternatively, photodynamic toxicity was determined by [^3H] thymidine incorporation. In this case, changes in rates of [^3H] thymidine incorporation following PDT were performed as follows: Cell cultures (4-5×10^4 cells/well in about 40-50% confluency grown in 10% fetal bovine serum) were pulsed with 1μ Ci/ml thymidine [methyl-^3H] for 2 h at 37° C. Cultures were then washed twice with cold phosphate-buffered saline (PBS), treated with 7.5% ice cold trichloroacetic acid (TCA) for 30 min at 4° C., washed 2 times with ethanol. Cells were then dissolved in 0.3 ml of 1 M NaOH at 37° C. for 15 min. Samples of 100 μl were neutralized with 100 μl of 1N HCI and 4 ml of 0.1 M imidazole and counted in a 20:8 (vol/vol) xylene scintillator/Lumax mixture. […] Results are given as means±SD of triplicate determinations.

[2] = system: M2R melanoma cells; experiment: PDT effect by clonogenic assay; assay type: cell-based, mouse
Experimental: The PDT effect was also determined by the clonogenic assay: 24 h after treatment of cells with various Chla-L-Ser-OMe concentrations and completion of the irradiation step, as described above (FIG. 12A), cultures were trypsinized and viable cell numbers determined by trypan blue exclusion. Appropriate dilutions were carried out and 250 cells/well were seeded into 6-well Costar plates. After 11-12 days in culture, the medium was aspirated and the colonies were fixed and stained with crystal violet in methanol and the number of colonies (more than 40 cells per colony) was counted under a dissecting microscope. […] Results are given as means±SD of triplicate determinations.

[3] = system: C57Bl mice; experiment: Toxicity of serine conjugates in mice in the absence of irradiation; assay type: in vivo, mouse; conditions: injections of up to 40 mg/kg body weight, up to 14 days, no irradiation
Experimental: (d) Toxicity of the Chl and Bchl-serine conjugates Chla-L-Ser-OMe and Bchla-L-Ser-OMe in C57Bl mice under normal housing conditions in the absence of irradiation was estimated by injection of the compound dissolved in 10% ethanol/PBS. Control mice were injected with the vehicle only. […] This dose of drug was thus far the highest used and LD50 vs. EC50 of treatment (margins of therapeutic index) have yet to be determined.

[4] = system: S. Aureus; assay type: cell-based, Staphylococcus Aureus
Experimental: (§1) 1. Preincubation: Bacteria or viruses were preincubated in the absence (untreated control) or presence of increasing concentration of photosensitizer for 1-2 h at room temperature or 37° C. in the dark.
(§2) 2. Illumination: One set of untreated control and one set of sensitizer treated samples were exposed to light for 5-10 min. An identical group was kept in the dark (dark control).
(§3) 3. Viability: samples of the controls and experimental groups were subjected for quantitation of survival and viability was calculated as per cent of untreated control.
(§4) The light source for illumination was a 250W halogen lamp. The light was focused on a glass support and filtered to eliminate light below 630 nm. The light intensity at the target level was 1500 μEinstein/cm^2. Illumination for Bchl-Ser against S. aureus was performed as described Example 17 herein.
(§5) Stocks of bacteria (S. aureus, B. subtilis, E. coli) were preserved on solid LB agar slants at 4° C. Two hours prior to the experiment, bacteria were transferred to liquid LB media and grown at 37° C. with continuous shaking. P. Acnes (ATCC-CR 6919) bacteria were grown on agar 1053 reinforced clostridial medium (Oxoid CM 149 ) and incubated at 37° C. […]
(§6) Aliquots (20 or 30 μl) of bacterial suspensions were plated on LB agar plates for 24 h at 37° C. […] Colonies were counted and per cent viability was calculated from untreated control. […]

[5] = system: B. Subtilis; assay type: cell-based, Bacilus Subtilis
Experimental: as §1, §2, §3, §4, §5, §6

[6] = system: E.Coli; experiment: PDT of bacteria with Chl-Ser, colony counting; assay type: cell-based, Escherichia Coli
Experimental: as §1, §2, §3, §4, §5, §6

[7] = system: Herpes simplex virus-1 (in infected Vero cells); experiment: PDT of HSV-1 in infected Vero cells, plaque assay; assay type: cell-based, Herpes simplex virus type 1
Experimental: Vero cells (Kidney African Green Monkey cells) were grown in DMEM+F12 medium buffered with 25 mM HEPES supplemented with 10% foetal bovine serum (FBS).Herpes simplex virus type 1 (HSV-1) was isolated from the eye of a patient with dentritic keratitis and maintained in culture.
For viral infection Vero cells (2×10^4/well) were cultured at 37° C. for 2 days in 24 well microplates. The culture medium was replaced with fresh medium containing 2% FBS and the cells infected with HSV-1 (200 μl) at multiplicity of infection (MOI) of 1-3. The cells were further incubated at 37° C. for 3 days. The medium was collected and centrifuged for 5 min in a clinical centrifuge to remove cells and cell debris. The concentration of viral particle was determined as described below and the suspension was aliquoted and kept at −80° C. until used.
Vero cells were inoculated with 10 fold dilutions of HSV-1 and cultured for 2 h at 37° C. The medium was then replaced with fresh DMEM containing 2% FBS and 0.7% methylcellulose and the cells were further incubated for 3 days. The overlayer was then decanted and the cells fixed and stained with crystal violet. Virus induced plaques were manually counted and plaque forming units (PFU/ml) were calculated.
Vero cells were infected with HSV-1 and incubated for four hours. Cells were then further incubated in dark for 1 h without or with Chl-Ser at the indicated concentrations. Cells were then washed three times with medium and immediately illuminated for 10 min. Subsequently the cells were incubated for 3 days for viral multiplication and media collected for quantitation. The appropriate controls described above were included in each experiment.

With C=Cc1c(C)c2cc3nc(c4c5[n-]c(cc6nc(cc1[n-]2)C(C)=C6CC)c(C)c5C(=O)[C@@H]4C(=O)OC)[C@@H](CCC(=O)OC[C@H](N)C(=O)OC)[C@@H]3C.[Mg+2] [Chla-L-Ser-OMe, L-seryl Methyl Ester Chlorophyllidea] the “[3H] thymidine incorporation without irradiation” value [1] was “not observed in the dark controls”, the “[3H] thymidine incorporation after PDT” value ([1]; 60 min with increasing concentrations, light source B, 24 h later) was “dose dependent reduction in the ability of the cells to incorporate [^3H] thymidine” and the “number of surviving cells (colonies) without irradiation” value ([2]; dark) was “not in the dark”. For the same compound, the “number of surviving cells (colonies) after PDT” value ([2]; irradiated, colonies counted after 11-12 days) was “reduced the number of surviving cells in a dose dependent manner”, the “effect on behavior and well being of mice” value [3] was “no noticeable effect on the behavior and well being of the mice” and the effect in dark [4] was “neither light alone nor Chl-Ser in dark showed any effect”. The effect in dark [5] was “neither light alone nor Chl-Ser in dark showed any effect”, the “concentration up to which phototoxicity could be detected, beyond which toxic in the dark” value [6] was ~5 µM and the “sensitivity to Chl-Ser and light” value [6] was “significant resistance”. The “concentration of maximal toxicity” value [7] was ~500 nM, the EC50 ([7]; 1 h with Chl-Ser, illuminated 10 min, read-out: half maximal effect on viral survival) was ~150 nM and the “effect in the dark” value ([7]; same concentrations range, dark) was “no effect in the dark”.
